Measured values reported in ChEMBL document CHEMBL4819089, “Magnolol, a natural aldehyde dehydrogenase-2 agonist, inhibits the proliferation and collagen synthesis of cardiac fibroblasts” (Bioorg Med Chem Lett, 2021).
Values belong to the compound of their own block, whether it stands above or below them. The source made the active and inactive calls. The rule behind the calls is not given here.

What was measured:
[1] = tested on: Cardiac fibroblast; test: Anti-myocardial fibrosis activity against cardiac fibroblasts (unknown origin) assessed as reduction in CDK4 protein expression at 30 uM measured after 24 hrs by western blot analysis; format: functional, tissue-based
[2] = tested on: Cardiac fibroblast; test: Anti-myocardial fibrosis activity against cardiac fibroblasts (unknown origin) assessed as reduction in collagen synthesis by measuring reduction in type3 collagen protein expression at 30 uM measured after 24 hrs by western blot analysis; format: functional
[3] = tested on: Cardiac fibroblast; test: Anti-myocardial fibrosis activity against cardiac fibroblasts (unknown origin) assessed as inhibition of cell proliferation at 30 uM measured after 24 hrs by EdU incorporation based assay; format: functional, tissue-based
[4] = tested on: Cardiac fibroblast; test: Anti-myocardial fibrosis activity against cardiac fibroblasts (unknown origin) assessed as inhibition of cell viability at 30 uM measured after 24 hrs by MTT assay; format: functional, tissue-based
[5] = tested on: Cardiac fibroblast; test: Anti-myocardial fibrosis activity against cardiac fibroblasts (unknown origin) assessed as reduction in cyclinD1 protein expression at 30 uM measured after 24 hrs by western blot analysis; format: functional, tissue-based
[6] = tested on: Cardiac fibroblast; test: Anti-myocardial fibrosis activity against cardiac fibroblasts (unknown origin) assessed as reduction in collagen synthesis by measuring reduction in type1 collagen protein expression at 30 uM measured after 24 hrs by western blot analysis; format: functional
[7] = tested on: Cardiac fibroblast; test: Anti-myocardial fibrosis activity against cardiac fibroblasts (unknown origin) assessed as inhibition of cell viability measured after 24 hrs in presence of ALDH2 inhibitor, daidzin by MTT assay; format: functional, tissue-based
[8] = tested on: Cardiac fibroblast; test: Anti-myocardial fibrosis activity against cardiac fibroblasts (unknown origin) assessed as reduction in CDK4 protein expression measured after 24 hrs in presence of ALDH2 inhibitor, daidzin by western blot analysis; format: functional, tissue-based
[9] = tested on: Cardiac fibroblast; test: Anti-myocardial fibrosis activity against cardiac fibroblasts (unknown origin) assessed as reduction in collagen synthesis by measuring reduction in type3 collagen protein expression measured after 24 hrs in presence of ALDH2 inhibitor, daidzin by western blot analysis; format: functional, tissue-based
[10] = tested on: Cardiac fibroblast; test: Anti-myocardial fibrosis activity against cardiac fibroblasts (unknown origin) assessed as reduction in collagen synthesis by measuring reduction in type1 collagen protein expression measured after 24 hrs in presence of ALDH2 inhibitor, daidzin by western blot analysis; format: functional, tissue-based
[11] = tested on: Cardiac fibroblast; test: Effect on Bax protein expression in cardiac fibroblasts (unknown origin) at 5 to 20 uM incubated for 24 hrs by western blot analysis; format: functional, tissue-based; conditions: dose 5-20 µM
[12] = target: T1, Aldehyde dehydrogenase, mitochondrial (Homo sapiens) (UniProt P05091); test: (§1) Agonist activity at human recombinant ALDH2 measured after 1 hr; conditions: filed as agonist
T1 sequence (whole entry): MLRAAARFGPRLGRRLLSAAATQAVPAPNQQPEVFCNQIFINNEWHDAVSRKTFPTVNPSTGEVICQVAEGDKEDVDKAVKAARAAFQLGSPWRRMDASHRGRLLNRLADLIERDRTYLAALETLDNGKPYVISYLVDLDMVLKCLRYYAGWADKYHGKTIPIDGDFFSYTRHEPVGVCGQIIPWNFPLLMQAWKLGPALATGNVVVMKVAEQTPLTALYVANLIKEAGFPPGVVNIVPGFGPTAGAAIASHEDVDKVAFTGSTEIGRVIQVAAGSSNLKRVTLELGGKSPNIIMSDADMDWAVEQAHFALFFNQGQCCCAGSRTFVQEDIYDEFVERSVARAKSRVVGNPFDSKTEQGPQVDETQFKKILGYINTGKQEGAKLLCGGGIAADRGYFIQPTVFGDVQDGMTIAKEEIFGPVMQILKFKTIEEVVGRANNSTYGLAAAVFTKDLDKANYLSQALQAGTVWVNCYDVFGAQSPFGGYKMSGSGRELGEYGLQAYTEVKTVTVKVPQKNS

[13] = target: T2, Aldehyde dehydrogenase, mitochondrial (Homo sapiens, UniProt P05091); test: as §1
T2 sequence (P05091 whole entry): T1 sequence (whole entry)

[14] = tested on: Cardiac fibroblast; test: Effect on Bcl2 protein expression in cardiac fibroblasts (unknown origin) at 5 to 20 uM incubated for 24 hrs by western blot analysis; format: functional, tissue-based; conditions: dose 5-20 µM
[15] = tested on: Cardiac fibroblast; test: Anti-myocardial fibrosis activity against cardiac fibroblasts (unknown origin) assessed as reduction in collagen synthesis by measuring reduction in type3 collagen protein expression measured after 24 hrs by western blot analysis; format: functional; conditions: dose 5-20 µM
[16] = tested on: Cardiac fibroblast; test: Anti-myocardial fibrosis activity against cardiac fibroblasts (unknown origin) assessed as reduction in cyclinD1 protein expression measured after 24 hrs in presence of ALDH2 inhibitor, daidzin by western blot analysis; format: functional, tissue-based
[17] = tested on: Cardiac fibroblast; test: Anti-myocardial fibrosis activity against cardiac fibroblasts (unknown origin) assessed as inhibition of cell viability at 20 uM measured for 120 hrs by MTT assay; format: functional, tissue-based
[18] = tested on: Cardiac fibroblast; test: Anti-myocardial fibrosis activity against cardiac fibroblasts (unknown origin) assessed as inhibition of cell proliferation measured after 24 hrs by EdU incorporation based assay; format: functional, tissue-based; conditions: dose 5-20 µM
[19] = tested on: Cardiac fibroblast; test: Effect on Bax protein expression in cardiac fibroblasts (unknown origin) measured after 24 hrs in presence of ALDH2 inhibitor, daidzin by western blot analysis; format: functional, tissue-based
[20] = tested on: Cardiac fibroblast; test: Effect on Bcl2 protein expression in cardiac fibroblasts (unknown origin) measured after 24 hrs in presence of ALDH2 inhibitor, daidzin by western blot analysis; format: functional, tissue-based
[21] = tested on: Cardiac fibroblast; test: Anti-myocardial fibrosis activity against cardiac fibroblasts (unknown origin) assessed as reduction in collagen synthesis by measuring reduction in type1 collagen protein expression measured after 24 hrs by western blot analysis; format: functional, tissue-based; conditions: dose 5-20 µM
[22] = tested on: Cardiac fibroblast; test: Anti-myocardial fibrosis activity against cardiac fibroblasts (unknown origin) assessed as reduction in cyclinD1 protein expression measured after 24 hrs by western blot analysis; format: functional, tissue-based; conditions: dose 5-20 µM
[23] = tested on: Cardiac fibroblast; test: Anti-myocardial fibrosis activity against cardiac fibroblasts (unknown origin) assessed as inhibition of cell viability measured after 24 hrs by MTT assay; format: functional, tissue-based; conditions: dose 5-20 µM
[24] = target: T1, Aldehyde dehydrogenase, mitochondrial (Homo sapiens); test: Binding affinity to ALDH2 (unknown origin) by surface plasmon resonance analysis; conditions: filed as agonist
[25] = tested on: Cardiac fibroblast; test: Anti-myocardial fibrosis activity against cardiac fibroblasts (unknown origin) assessed as inhibition of cell proliferation measured after 24 hrs in presence of ALDH2 inhibitor, daidzin by EdU incorporation based analysis; format: functional, tissue-based
[26] = tested on: Cardiac fibroblast; test: Effect on ALDH2 expression in cardiac fibroblasts (unknown origin) at 5 to 20 uM measured after 24 hrs by western blot analysis; format: functional, tissue-based; conditions: dose 5-20 µM
[27] = target: T1, Aldehyde dehydrogenase, mitochondrial (Homo sapiens); test: Agonist activity at ALDH2 in cardiac fibroblasts (unknown origin) measured after 24 hrs by ELISA; format: tissue-based; conditions: Cardiac fibroblast, filed as agonist, dose 5-20 µM
[28] = tested on: Cardiac fibroblast; test: Anti-myocardial fibrosis activity against cardiac fibroblasts (unknown origin) assessed as reduction in CDK4 protein expression measured after 24 hrs by western blot analysis; format: functional, tissue-based; conditions: dose 5-20 µM

SMILES: O=C(NCc1ccc2c(c1)OCO2)c1c(Cl)cccc1Cl
Activity [1]: Active
Activity [2]: Active
Activity [3]: Active
Activity [4]: Active
Activity [5]: Active
Activity [6]: Active

Activity [12]: Dose-Dependent Effect
EC50 [13]: 57.9 µM
Activity [24]: 7.07 10^-6M
Activity [27]: Dose-Dependent Effect
SMILES: C=CCc1ccc(O)c(-c2cc(CC=C)ccc2O)c1 [MAGNOLOL]
Activity [7]: inactive
Activity [8]: inactive
Activity [9]: inactive
Activity [10]: inactive
Activity [11]: inactive
Activity [14]: inactive
Activity [15]: Dose-Dependent Effect
Activity [16]: inactive
Activity [17]: Active
Activity [18]: Dose-Dependent Effect
Activity [19]: inactive
Activity [20]: inactive
Activity [21]: Dose-Dependent Effect
Activity [22]: Dose-Dependent Effect
Activity [23]: Dose-Dependent Effect
Activity [25]: inactive
Activity [26]: inactive
Activity [28]: Dose-Dependent Effect
